Consider eight compounds from patent US10570141B2, “Substituted pyrrolopyrimidine CDK inhibitor, pharmaceutical composition containing same and use thereof” (CHIA TAI TIANQING PHARMACEUTICAL GROUP CO., LTD., priority 2016, dated 2020).

pIC50: −log10 of the molar value. Counter-ions that a name gives are not always drawn. Like-named read-outs stand apart in the source and are kept apart here.

For one series, the target named is CDK4/CyclinD3 (Homo sapiens (Human), UniProt P11802). Nature of the series: In vitro kinase activity inhibition assay of CDK4/CyclinD3 (LANCE method). It is filed as biochemical. The note with it: recombinant CDK4/CyclinD3 2 nM, ATP 200 μM, 1 h room temperature. The text has this: (§1) A method for in vitro kinase activity inhibition assay of CDK4/CyclinD3 and CDK6/CyclinD3 is established as follows:
(§2) LANCE method of PerkinElmer Inc. was used in the assay, and recombinant CDK4/CyclinD3 (Item No.: 04-105) and CDK6/CyclinD3 (Item No.: 04-107) kinases were purchased from Cama Biosciences, Inc. Substrate ULight-MBP (Item No.: TRF0109) and Eu-labeled anti-MBP antibody (Item No.: TRF0201) were purchased from PerkinElmer. HEPES PH7.5 (Item No.: #15630080), DTT (Item No.: # D1532), MgCl2 (Item No.: # AM9530G), EGTA (Item No.: # E1219), and EDTA (Item No.: # AM9260G) were purchased from Life Technology. Firstly, a 1× buffer solution A (50 mM HEPES, PH 7.5, 10 mM MgCl2, 1 mM EGTA, 0.01% Tween 20 and 2 mM DTT) was prepared. A compound to be tested was dissolved in DMSO to 1 mM, serially diluted with DMSO, and then diluted 25-fold with the buffer solution A (final concentration of DMSO: 1%). CDK4/CyclinD3 and CDK6/CyclinD3 were diluted respectively with the buffer solution A. Finally, the buffer solution A was used to prepare the substrate and ATP. 4 μl of CDK4/CyclinD3 (final concentration: 2 nM) or CDK6/CyclinD3 (final concentration: 4 nM), 2 μl of the diluted compound, and 4 μl of a mixture of the substrate (final concentration: 50 nM) and ATP (final concentration: 200 μM) were added to reaction wells, and the resulting mixture was kept at room temperature to react for 1 h. Then, an EDTA solution was added to terminate the reaction, and Eu-labeled anti-MBP antibody was added and the resulting mixture was incubated at room temperature for additional 1 h. EnVision was used to read fluorescent signals (excitation wavelength: […], emission wavelength: […]).
Background: In TR-FRET formats the signal depends on donor and acceptor labels being close together.

Series [1] can be described thus: Pharmacokinetics evaluation in rats after intragastric administration. The conditions noted are these: male, rat, plasma, po, 5 mg/kg.
Procedure: (§4) 3 Healthy adult male rats were used for each tested compound. The tested compound was suspended in 20% sulfobutyl ether-β-cyclodextrin at a concentration of 1 mg/mL, and then was intragastrically administered at a single dose of 5 mg/kg (administered volume: 5 mL/kg). The animals to be intragastrically administered were fasted overnight prior to the experiment, i.e., fasted from 10 h prior to the administration to 4 h after the administration, and blood samples were collected in 0.25, 0.5, 1, 2, 4, 6, 8 and 24 h after the intragastric administration. About 0.3 mL of whole blood was collected from the orbital venous plexus, and put in a heparin anticoagulant tube. The sample was centrifuged at 4° C. at 4000 rpm for 5 min. The plasma was transferred to a centrifuge tube, and kept at −80° C. until analysis. Concentration of the tested compound in the plasma sample was analyzed using non-validated liquid chromatography-tandem mass spectrometry (LC-MS/MS). Plasma concentration-time data of individual animals were analyzed using WinNonlin (Professional Edition, Version 6.3; Pharsight Corporation) software. A non-compartment model was used for concentration analysis.
The next series relates to MCF7 cells. Nature of the series: Inhibition of proliferation of breast cancer cell line MCF7 (Cell-Titer Glo). Type of series: cell-based, human. The conditions noted are these: 72 hours incubation, cell viability. How it is done:
(§3) Colo-205 (Crown Bioscience Inc.) and MCF7 (Beijing Jinzijing Biology Medicine Technology Co., Ltd.) cells were inoculated into a 96-well plate (Corning, Item No.: 3599) at a density of 1000 cells/well, and incubated overnight. A compound at different concentrations (10000 nM, 3000 nM, 1000 nM, 300 nM, 100 nM, 30 nM, 10 nM, 3 nM, 1 nM, 0.3 nM, 0 nM, final concentration of DMSO: 0.1%) was added on the next day, and the incubation was continued for additional 72 hours. The culture medium was sucked with a vacuum pump, 50 ul of Cell-Titer Glo reagent (Promega, Item No.: G7572) was added to each well, and shaken for 10 min. Chemiluminescent signals were collected by EnVision® Multilabel Reader (PerkinElmer Inc.) to detect the cell viability and calculate the half maximal inhibitory concentration of the compound for inhibiting cell proliferation.

The subject of another series is Colo-205 cells. Kind of series: Inhibition of proliferation of colon cancer cell line Colo-205 (Cell-Titer Glo). Type of series: cell-based, human. The note with it: 72 hours incubation, cell viability, read-out: IC50(Colo205). How it is done:
as §3

The target in the next series is CDK6/CyclinD3 (Homo sapiens (Human), UniProt Q00534). Kind of series: In vitro kinase activity inhibition assay of CDK6/CyclinD3 (LANCE method). It is filed as biochemical. The note with it: recombinant CDK6/CyclinD3 4 nM, ATP 200 μM, 1 h room temperature.
Chain of CDK6/CyclinD3 (Q00534 whole entry): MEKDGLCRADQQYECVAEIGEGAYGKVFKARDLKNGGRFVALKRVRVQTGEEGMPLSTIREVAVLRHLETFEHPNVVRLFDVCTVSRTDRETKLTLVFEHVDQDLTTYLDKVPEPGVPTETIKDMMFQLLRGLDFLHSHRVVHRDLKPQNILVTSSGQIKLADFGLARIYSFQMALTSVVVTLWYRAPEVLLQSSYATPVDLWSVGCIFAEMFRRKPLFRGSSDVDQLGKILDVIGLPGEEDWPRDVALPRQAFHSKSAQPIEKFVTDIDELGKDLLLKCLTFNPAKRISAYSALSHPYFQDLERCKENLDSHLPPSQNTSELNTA
Chain of CDK6/CyclinD3 (P30281 whole entry partner): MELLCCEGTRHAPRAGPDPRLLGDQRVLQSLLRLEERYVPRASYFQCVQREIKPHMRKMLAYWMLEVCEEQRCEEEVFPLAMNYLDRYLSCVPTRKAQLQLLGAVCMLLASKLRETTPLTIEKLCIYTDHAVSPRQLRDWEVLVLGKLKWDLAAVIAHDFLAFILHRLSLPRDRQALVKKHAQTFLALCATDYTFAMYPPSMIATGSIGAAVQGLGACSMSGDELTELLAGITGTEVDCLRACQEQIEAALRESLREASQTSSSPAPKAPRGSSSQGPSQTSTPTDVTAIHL
Source text: as §1, §2

For series [2] the following is noted: rat, in vivo, po, 5 mg/kg.
Procedure: as §4

Chain of CDK4/CyclinD3 (P11802 whole entry): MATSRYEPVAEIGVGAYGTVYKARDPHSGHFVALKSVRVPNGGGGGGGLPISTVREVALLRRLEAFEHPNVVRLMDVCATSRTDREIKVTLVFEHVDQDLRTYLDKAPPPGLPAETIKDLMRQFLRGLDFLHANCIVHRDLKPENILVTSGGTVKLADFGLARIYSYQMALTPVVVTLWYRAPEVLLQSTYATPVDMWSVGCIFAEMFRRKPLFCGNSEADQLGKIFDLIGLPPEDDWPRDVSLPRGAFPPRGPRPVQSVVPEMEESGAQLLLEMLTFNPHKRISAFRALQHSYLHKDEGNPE
Chain of CDK4/CyclinD3 (P30281 whole entry partner): as the sequence (P30281 whole entry partner) above

One may read the pIC50 as the negative decadic logarithm of the IC50, by convention in mol/L. What is called AUC(0-inf) is the area under the concentration-time curve extrapolated to infinity. A higher AUC(0-inf) goes with more exposure. For orientation: Cmax means the maximum level reached in the sampled fluid or tissue. In general, Tmax refers to the time from dosing to the highest level. A word on the half-life: it is the time in which the quantity being followed falls by half. The low end stands for rapid decline, the high end for slow decline. In the case of `CN(C)C(=O)c1cc2cnc(Nc3ccc(C4=CCNCC4)cn3)nc2n1C1CCCC1.Cl` [Example 6, 7-cyclopentyl-6-N,N-dimethylcarbamoyl-N-(5-(1,2,3,6-4H-pyridin-4-yl)pyridin-2-yl)-7H-pyrrolo[2,3-d]pyrimidin-2-amine hydrochloride], the pIC50 at CDK4/CyclinD3 was 8.63. Moreover, in series [1], the AUC(0-inf) was 627 ng·h/mL, the Cmax stood at 74.3 ng/mL, the Tmax was determined as 3.33 h and the half-life is 3.76 h. In the series with MCF7 cells (Homo sapiens), the pIC50 is 6.48. In addition, the pIC50 in the series on Colo-205 cells (Homo sapiens) is 5.90. At CDK6/CyclinD3, the pIC50 is 7.51.
On to `CS(=O)(=O)c1cc2cnc(Nc3ccc(C4=CCNCC4)cn3)nc2n1C1CCCC1.Cl` [Example 4, 7-cyclopentyl-6-methylsulfonyl-N-(5-(1,2,3,6-4H-pyridin-4-yl)pyridin-2-yl)-7H-pyrrolo[2,3-d]pyrimidin-2-amine hydrochloride], for which the pIC50 on CDK4/CyclinD3 is 8.59. In series [1], the AUC(0-inf) was 889 ng·h/mL, the Cmax was found to be 90 ng/mL, the Tmax turned out to be 3 h and the half-life was 3.28 h. For the same compound, in the series with MCF7 cells (Homo sapiens), the pIC50 is 6.76. Also, the pIC50 with Colo-205 cells (Homo sapiens) was 6.51. Further, the pIC50 on CDK6/CyclinD3 was 7.96.
With `CCS(=O)(=O)c1cc2cnc(Nc3ccc(N4CCNCC4)cn3)nc2n1C1CCCC1` [Example 2, 7-cyclopentyl-6-ethylsulfonyl-N-(5-(piperazin-1-yl)pyridin-2-yl)-7H-pyrrolo[2,3-d]pyrimidin-2-amine hydrochloride], the pIC50 at CDK4/CyclinD3 is 8.67; at CDK6/CyclinD3, 7.68.
As to `CN(C)C(=O)c1cc2cnc(Nc3ccc(N4CCNCC4)cn3)nc2n1C1CCCC1.Cl` [Comparative Example 1], in series [2], the AUC(0-inf) worked out at 120 ng·h/mL, the Cmax was 15.8 ng/mL, the T1/2 worked out at 4.25 h and the Tmax came to 2.67 h.
As to `CS(=O)(=O)c1cc2cnc(Nc3ccc(C4CCNCC4)cn3)nc2n1C1CCCC1` [Example 5, 7-cyclopentyl-6-methylsulfonyl-N-(5-(piperidin-4-yl)pyridin-2-yl)-7H-pyrrolo[2,3-d]pyrimidin-2-amine hydrochloride], the pIC50 was 8.84 at CDK4/CyclinD3, 6.33 with Colo-205 cells (Homo sapiens) and 8.01 at CDK6/CyclinD3.
For `CN(C)C1CCN(c2ccc(Nc3ncc4cc(S(C)(=O)=O)n(C5CCCC5)c4n3)nc2)CC1` [Example 3, 7-cyclopentyl-6-methylsulfonyl-N-(5-(4-(dimethylamino)piperidin-1-yl)pyridin-2-yl)-7H-pyrrolo[2,3-d]pyrimidin-2-amine hydrochloride], the pIC50 on CDK4/CyclinD3 was 8.47; on CDK6/CyclinD3, 7.73.
Turning to `CS(=O)(=O)c1cc2cnc(Nc3ccc(N4CCNCC4)cn3)nc2n1C1CCCC1` [Example 1, 7-cyclopentyl-6-methylsulfonyl-N-(5-(piperazin-1-yl)pyridin-2-yl)-7H-pyrrolo[2,3-d]pyrimidin-2-amine hydrochloride], the pIC50 at CDK4/CyclinD3 is 9.10. For the same compound, in series [1], the AUC(0-inf) was determined as 1960 ng·h/mL, the Cmax was 255 ng/mL, the Tmax was found to be 1.33 h and the half-life was 7.23 h. Besides, in the series with MCF7 cells (Homo sapiens), the pIC50 is 6.94. The pIC50 with Colo-205 cells (Homo sapiens) is 6.57. Moreover, at CDK6/CyclinD3, the pIC50 is 8.24.
For the compound `CN(C)C(=O)c1cc2cnc(Nc3ccc(N4CCNCC4)cn3)nc2n1C1CCCC1.Cl` [Comparative Example 1, 7-cyclopentyl-2-(5-(piperazin-1-yl-pyridin-2-ylamino)-7H-pyrrolo[2,3-d]pyrimidine-6-carboxylic acid dimethylamide (ribociclib) hydrochloride], the pIC50 was 6.49 in the series on MCF7 cells and 5.57 with Colo-205 cells.
